ChEMBL document CHEMBL4308841, “Synthesis, in vitro antiproliferative activity, and kinase inhibitory effects of pyrazole-containing diarylureas and diarylamides” (Eur J Med Chem, 2018)

Legend:
[1] = test system: SR; test: Growth inhibition of human SR cells incubated for 48 hrs by sulforhodamine B assay; format: functional, cell-based
[2] = test system: NCI-H322M; test: Growth inhibition of human NCI-H322M cells incubated for 48 hrs by sulforhodamine B assay; format: functional, cell-based
[3] = test system: SNB-75; test: Growth inhibition of human SNB75 cells incubated for 48 hrs by sulforhodamine B assay; format: functional, cell-based; settings: SNB-75, 48 h
[4] = test system: U-251; test: Growth inhibition of human U251 cells incubated for 48 hrs by sulforhodamine B assay; format: functional, cell-based; settings: U-251, 48 h
[5] = test system: LOX IMVI; test: Growth inhibition of human LOXIMVI cells incubated for 48 hrs by sulforhodamine B assay; format: functional
[6] = test system: Malme-3M; test: Growth inhibition of human MALME-3M cells incubated for 48 hrs by sulforhodamine B assay; format: functional, cell-based
[7] = test system: SK-MEL-28; test: Growth inhibition of human SK-MEL-28 cells incubated for 48 hrs by sulforhodamine B assay; format: functional, cell-based; settings: SK-MEL-28, 48 h
[8] = test system: IGROV-1; test: Growth inhibition of human IGROV1 cells incubated for 48 hrs by sulforhodamine B assay; format: functional, cell-based; settings: IGROV-1, 48 h
[9] = test system: RPMI-8226; test: Growth inhibition of human RPMI8226 cells assessed as cell growth at 0.01 uM incubated for 48 hrs by sulforhodamine B assay relative to control; format: functional; settings: RPMI-8226, 48 h, read-out: Activity
[10] = test system: NCI-H322M; test: Growth inhibition of human NCI-H322M cells assessed as cell growth at 0.01 uM incubated for 48 hrs by sulforhodamine B assay relative to control; format: functional; settings: read-out: Activity
[11] = test system: SW-620; test: Growth inhibition of human SW620 cells assessed as cell growth at 0.01 uM incubated for 48 hrs by sulforhodamine B assay relative to control; format: functional; settings: SW-620, 48 h, read-out: Activity
[12] = test system: IGROV-1; test: Growth inhibition of human IGROV1 cells assessed as cell growth at 0.01 uM incubated for 48 hrs by sulforhodamine B assay relative to control; format: functional; settings: IGROV-1, 48 h, read-out: Activity
[13] = test system: OVCAR-5; test: Growth inhibition of human OVCAR5 cells assessed as cell growth at 0.01 uM incubated for 48 hrs by sulforhodamine B assay relative to control; format: functional; settings: OVCAR-5, 48 h, read-out: Activity
[14] = test system: 786-0; test: Growth inhibition of human 786-0 cells assessed as cell growth at 0.01 uM incubated for 48 hrs by sulforhodamine B assay relative to control; format: functional; settings: 786-0, 48 h, read-out: Activity
[15] = test system: T47D; test: Growth inhibition of human T47D cells assessed as cell growth at 0.01 uM incubated for 48 hrs by sulforhodamine B assay relative to control; format: functional; settings: read-out: Activity
[16] = test system: MDA-MB-435; test: Growth inhibition of human MDA-MB-435 cells assessed as cell growth at 0.1 uM incubated for 48 hrs by sulforhodamine B assay relative to control; format: functional; settings: MDA-MB-435, 48 h, read-out: Activity
[17] = test system: SN12C; test: Growth inhibition of human SN12C cells assessed as cell growth at 0.1 uM incubated for 48 hrs by sulforhodamine B assay relative to control; format: functional; settings: read-out: Activity
[18] = test system: Hs-578T; test: Growth inhibition of human Hs578T cells assessed as cell growth at 0.1 uM incubated for 48 hrs by sulforhodamine B assay relative to control; format: functional; settings: read-out: Activity
[19] = test system: MOLT-4; test: Growth inhibition of human MOLT4 cells assessed as cell growth at 1 uM incubated for 48 hrs by sulforhodamine B assay relative to control; format: functional; settings: MOLT-4, 48 h, read-out: Activity
[20] = test system: HT-29; test: Growth inhibition of human HT-29 cells assessed as cell growth at 1 uM incubated for 48 hrs by sulforhodamine B assay relative to control; format: functional; settings: HT-29, 48 h, read-out: Activity
[21] = test system: LOX IMVI; test: Growth inhibition of human LOXIMVI cells assessed as cell growth at 1 uM incubated for 48 hrs by sulforhodamine B assay relative to control; format: functional; settings: read-out: Activity
[22] = test system: SK-MEL-5; test: Growth inhibition of human SK-MEL-5 cells assessed as cell growth at 1 uM incubated for 48 hrs by sulforhodamine B assay relative to control; format: functional; settings: SK-MEL-5, 48 h, read-out: Activity
[23] = test system: UACC-257; test: Growth inhibition of human UACC257 cells assessed as cell growth at 1 uM incubated for 48 hrs by sulforhodamine B assay relative to control; format: functional; settings: UACC-257, 48 h, read-out: Activity
[24] = test system: A498; test: Growth inhibition of human A498 cells assessed as cell growth at 1 uM incubated for 48 hrs by sulforhodamine B assay relative to control; format: functional; settings: A498, 48 h, read-out: Activity
[25] = test system: CAKI-1; test: Growth inhibition of human Caki1 cells assessed as cell growth at 1 uM incubated for 48 hrs by sulforhodamine B assay relative to control; format: functional; settings: CAKI-1, 48 h, read-out: Activity
[26] = test system: NCI-H322M; test: Growth inhibition of human NCI-H322M cells assessed as cell growth at 100 uM incubated for 48 hrs by sulforhodamine B assay relative to control; format: functional; settings: read-out: Activity
[27] = test system: M14; test: Growth inhibition of human M14 cells assessed as cell growth at 100 uM incubated for 48 hrs by sulforhodamine B assay relative to control; format: functional; settings: M14, 48 h, read-out: Activity
[28] = test system: OVCAR-8; test: Growth inhibition of human OVCAR8 cells assessed as cell growth at 100 uM incubated for 48 hrs by sulforhodamine B assay relative to control; format: functional; settings: OVCAR-8, 48 h, read-out: Activity
[29] = test system: CAKI-1; test: Growth inhibition of human Caki1 cells assessed as cell growth at 100 uM incubated for 48 hrs by sulforhodamine B assay relative to control; format: functional; settings: CAKI-1, 48 h, read-out: Activity
[30] = read-out: LC50 (the source's name)
[31] = read-out: pLC50 (the source's name) (converted)

## COc1cc(Cl)cc(-c2nn(-c3cccc(NC(=O)c4cccc(C(F)(F)F)c4)c3)cc2-c2ccncc2)c1
[1]; read-out: GI50
  GI50: 2.48 µM
[1]; [30]
  CC50: > 100 µM
[1]; read-out: TGI
  TGI: > 100 µM
[1]; read-out: pGI50 (converted)
  GI50: 3.09 µM
[1]; [31]
  CC50: > 100 µM
[1]; read-out: pTGI (converted)
  TGI: > 100 µM
[2]; read-out: GI50
  GI50: > 100 µM
[2]; [30]
  CC50: > 100 µM
[2]; read-out: TGI
  TGI: > 100 µM
[2]; read-out: pGI50 (converted)
  GI50: > 100 µM
[2]; [31]
  CC50: > 100 µM
[2]; read-out: pTGI (converted)
  TGI: > 100 µM
[3]; read-out: GI50
  GI50: 5.52 µM
[3]; [30]
  CC50: > 100 µM
[3]; read-out: TGI
  TGI: > 100 µM
[3]; read-out: pGI50 (converted)
  GI50: 7.08 µM
[3]; [31]
  CC50: > 100 µM
[3]; read-out: pTGI (converted)
  TGI: > 100 µM
[4]
  IC50: 5.56 µM
[4]; read-out: GI50
  GI50: 5.58 µM
[4]; [30]
  CC50: > 100 µM
[4]; read-out: TGI
  TGI: > 100 µM
[4]; read-out: pGI50 (converted)
  GI50: 5.62 µM
[4]; [31]
  CC50: > 100 µM
[4]; read-out: pTGI (converted)
  TGI: > 100 µM
[5]; read-out: GI50
  GI50: 1.57 µM
[5]; [30]
  CC50: > 100 µM
[5]; read-out: TGI
  TGI: > 100 µM
[5]; read-out: pGI50 (converted)
  GI50: 15.8 µM
[5]; [31]
  CC50: > 100 µM
[5]; read-out: pTGI (converted)
  TGI: > 100 µM
[6]; read-out: GI50
  GI50: > 100 µM
[6]; [30]
  CC50: > 100 µM
[6]; read-out: TGI
  TGI: > 100 µM
[6]; read-out: pGI50 (converted)
  GI50: > 100 µM
[6]; [31]
  CC50: > 100 µM
[6]; read-out: pTGI (converted)
  TGI: > 100 µM
[7]; read-out: GI50
  GI50: > 100 µM
[7]; [30]
  CC50: > 100 µM
[7]; read-out: TGI
  TGI: > 100 µM
[7]; read-out: pGI50 (converted)
  GI50: > 100 µM
[7]; [31]
  CC50: > 100 µM
[7]; read-out: pTGI (converted)
  TGI: > 100 µM
[8]; read-out: GI50
  GI50: > 100 µM
[8]; [30]
  CC50: > 100 µM
[8]; read-out: TGI
  TGI: > 100 µM
[8]; read-out: pGI50 (converted)
  GI50: > 100 µM
[8]; [31]
  CC50: > 100 µM
[8]; read-out: pTGI (converted)
  TGI: > 100 µM
[9]
  growth at 0.01 µM: 101%
[10]
  growth at 0.01 µM: 69%
[11]
  growth at 0.01 µM: 101%
[12]
  growth at 0.01 µM: 94%
[13]
  growth at 0.01 µM: 58%
[14]
  growth at 0.01 µM: 99%
[15]
  growth at 0.01 µM: 99%
[16]
  growth at 0.1 µM: 95%
[17]
  growth at 0.1 µM: 99%
[18]
  growth at 0.1 µM: 89%
[19]
  growth at 1 µM: 72%
[20]
  growth at 1 µM: 70%
[21]
  growth at 1 µM: 88%
[22]
  growth at 1 µM: 57%
[23]
  growth at 1 µM: 92%
[24]
  growth at 1 µM: 51%
[25]
  growth at 1 µM: 90%
[26]
  growth at 100 µM: 75%
[27]
  growth at 100 µM: 27%
[28]
  growth at 100 µM: 41%
[29]
  growth at 100 µM: 21%
